Read-outs that look alike come from different tables or passages of the source.
Legend:
sphincter of Oddi [1] = assay: Rabbit model for contraction of sphincter of Oddi (perfusion pressure in sphincter of Oddi); type: in vivo
Experimental: The method described in Wei J G et al., World J. Gastroenterol., 6, 102 (2000) was partially modified and used for measurement of a change in the perfusion pressure in sphincter of Oddi. The change in the perfusion pressure reflects the motility of a contractive change of sphincter of Oddi.
Male NZW rabbits (Japan SLC) which had body weights of 2.0 to 2.5 kg upon delivery were fasted from the evening of the day before the experiment. The experiment was carried out under anesthesia with pentobarbital, with artificial ventilation. Each rabbit was immobilized in the supine position and subjected to abdominal incision to expose the periduodenal area and the common bile duct. A small incision was made in the common bile duct, and a cannula was inserted into the common bile duct toward the duodenum side, followed by indwelling its tip in sphincter of Oddi (sphincter ampullae). For biliary excretion, another cannula was inserted into the bile duct toward the gallbladder side and immobilized. From the other end of the cannula whose tip was indwelled in the sphincter of Oddi, physiological saline was continuously injected at a flow rate of 6 mL/hour to allow perfusion in the sphincter of Oddi. By recording the perfusion pressure with a blood pressure monitoring transducer (DX-300, Nihon Kohden Corporation), the contraction reaction of sphincter of Oddi was measured.
To the rabbit, 5% aqueous mannitol solution, which is the vehicle for the Compound 1 solution, was administered via the jugular vein. Further, not less than 30 minutes after the administration of the vehicle, Compound 1 was administered to the same individual at a dose of 0.2 μg/kg via the jugular vein. The administration volume of the vehicle and Compound 1 was 1 mL/kg, and the administration was carried out for 60 seconds.
Thus, in the Compound 1-administered group, the rate of change in the maximum perfusion pressure was lower compared to the vehicle-administered group, and this difference was significant (*p<0.05, paired t-test).

sphincter of Oddi [2] = assay: Sphincter of Oddi perfusion pressure after intravenous administration to a dog (literature); type: in vivo
Experimental: Further, gabexate mesilate reduces the sphincter of Oddi perfusion pressure by 6.9 mmH2O (corresponds to 0.51 mmHg) or 10.6 mmH2O (corresponds to 0.78 mmHg) when it is intravenously administered to a dog at a dose of 1 mg/kg or 3 mg/kg, respectively (Yamasato T. et al., J Smooth Muscle Res., 27, 87 (1991). Since oxapium iodide is usually orally administered at a dose of 30 to 60 mg per adult per day dividedly in 3 times, and 100 mg of gabexate mesilate is usually dissolved in 500 mL of Ringer's solution and the resulting solution is administered by intravenous drip infusion at a rate of not more than 8 mL/minute, the above-described doses are considered to be equivalent to the clinical doses of those drugs.

sphincter of Oddi [3] = settings: dog, intravenous, cited from earlier work
biliary tract = settings: nalbuphine not statistically significant; butorphanol statistically significant; cited from earlier work
sphincter of Oddi [4] = settings: animal experiments, high doses; cited from earlier work
sphincter of Oddi [5] = settings: literature reports; cited from earlier work

For `CN(C(=O)/C=C/c1ccoc1)[C@@H]1CC[C@@]2(O)[C@H]3Cc4ccc(O)c5c4[C@@]2(CCN3CC2CC2)[C@H]1O5.Cl` [Compound 1, (−)-17-(cyclopropylmethyl)-3,14β-dihydroxy-4,5α-epoxy-6β-[N-methyl-trans-3-(3-furyl)acrylamido]morphinan hydrochloride], the “reduction of the actual value of the maximum perfusion pressure” value (sphincter of Oddi [1]; 0.2 μg/kg intravenous to rabbits, on average) was 0.95 mmHg, the “action on contraction of sphincter of Oddi (conclusion in words)” value (sphincter of Oddi [1]; 0.2 μg/kg intravenous, rabbit) was “has an action to inhibit contraction of sphincter of Oddi” and the “rate of change in the maximum perfusion pressure (Oddi muscle contraction (Delta %))” value (sphincter of Oddi [1]; 0.2 μg/kg intravenous, 3 minutes after vs 3 minutes before beginning of administration, mean, N=11, vehicle 99.81%, p<0.05) was 93.32%.
For `C[N+]1(CC2COC(c3ccccc3)(C3CCCCC3)O2)CCCCC1` (stereo not drawn) [Oxapium iodide], the “reduction of the sphincter of Oddi perfusion pressure (converted)” value (from here on “reduction of the sphincter … (converted)”) (sphincter of Oddi [2]; 0.3 mg/kg) is given as 0.74 mmHg and the “reduction of the sphincter of Oddi perfusion pressure” value (sphincter of Oddi [3]; 0.3 mg/kg (Tamasawa Y. et al. 1972)) is given as “about 10 mmH2O”.
In the case of `Oc1ccc2c(c1)[C@@]13CCCC[C@@]1(O)[C@@H](C2)N(CC1CCC1)CC3` [butorphanol], the “increase of the inner pressure of biliary tract” value (biliary tract) is listed as 12%.
For `CN1CC[C@]2(C)C[C@@H](Cc3ccc(O)cc32)C1` [eptazocine], the “contraction of sphincter of Oddi” value (sphincter of Oddi [4]) is listed as “shows an action to cause contraction of sphincter of Oddi”.
In the case of `CCOC(=O)c1ccc(OC(=O)CCCCCNC(=N)N)cc1` [gabexate mesilate], the “reduction of the sphincter … (converted)” value (sphincter of Oddi [2]; 1 mg/kg) is listed as 0.51 mmHg, the “reduction of the sphincter … (converted)” value (sphincter of Oddi [2]; 3 mg/kg) is listed as 0.78 mmHg and the “reduction of the sphincter of Oddi perfusion pressure” value (sphincter of Oddi [3]; 1 mg/kg (Yamasato T. et al. 1991)) is listed as 6.9 mmH2O. For the same compound, the “reduction of the sphincter of Oddi perfusion pressure” value (sphincter of Oddi [3]; 3 mg/kg (Yamasato T. et al. 1991)) was 10.6 mmH2O.
In the case of `Oc1ccc2c3c1O[C@H]1[C@@H](O)CC[C@@]4(O)[C@@H](C2)N(CC2CCC2)CC[C@]314` [nalbuphine], the “action on contraction of sphincter of Oddi” value (sphincter of Oddi [5]) is listed as “does not exert any action on contraction of sphincter of Oddi”.
In the case of `C=CCN1CC[C@]23c4c5ccc(O)c4O[C@H]2C(=O)CC[C@@]3(O)[C@H]1C5` [naloxone], the “action on contraction of sphincter of Oddi” value (sphincter of Oddi [5]) is given as “have an action to inhibit contraction of sphincter of Oddi”.
In the case of `COc1cccc(C2(O)CCCCC2CN(C)C)c1` (stereo not drawn) [tramadol], the “contraction of sphincter of Oddi” value (sphincter of Oddi [4]) is listed as “causes contraction of sphincter of Oddi”.
For methionine enkephalin, the “action on contraction of sphincter of Oddi” value (sphincter of Oddi [5]) is given as “cause transient contraction of sphincter of Oddi, followed by showing a continuous contraction inhibition action”.
